From patent publication US5726203A, “Qinghaosu derivatives against AIDS” (priority 1993, dated 1998)
Where a name gives a salt, the structure may show the parent alone. Read-outs that look alike come from different tables or passages of the source.

Columns and labels:
[1] = Acute toxicity in mice; assay type: in vivo; conditions: mouse, in vivo
Method: Animals: Hybrid swiss strain mice (provided by Animal House of Institute of Chinese Mateia Media, China Academy of Traditional Chinese Medicine), 20-22 grams, less than 6 weeks age of both sexes fed in laboretory for 3-5 days observation and a random taking food and drinking.
Drugs: Dihydroqinghaosu-methylcarbamate and dihydroqinghaosu-benzenecarbamate.
Above two drugs in powder form were dissolved into peanut oil. The biggest dose were 2000 mg/kg and 2161 mg/kg respectively. The distances between two dose groups were 0.7 and 0.68 respectively, with 5 dose groups each drugs.
Method: The mice were given single dose of above compound respectively intragastrically, the acute intoxication manifestrations were observed the LD value (LD5, LD50 and LD95) and B value were determined by three days mortality.

[2] = system: HIV-1 (MT4); test: Anti-HIV effect on MT4 cells, virus antigen expression (immunoenzymatic method); assay type: cell-based
Excerpt: The virus used was HIV-1 which had been obtained from Professor Montagnier of the Pastear Institute, France. The virus titer used in the experiment was 1×10^4 TCID50 /ml. The cell culture used was CEM cell line which was cultivated in the HIV laboratory of Institute of Virology, Chinese Academy of Preventive Medicine, for cultivation storage of HIV-1.
The compounds used in the experiment were qinghaosu, dihydroqinghaosu, Artesunate, Artemether, dihydroqinghaosu-methylcarbamate, dihydroqinghaosu-benzenecarbamate, qinghaosu-morpholinyl propylether maleate, dihydroqinghaosu-diethyl amino ethyl ether maleate, deoxyqinghaosu-morpholinyl ethyl ether maleate, qinghaosu-morpholinyl propanol ether maleate, qinghaosu-3,5-dimonpholinyl methyl-4-hydroxy benzyl ether maleate, dihydroqinghaosu-m-chlorobenzoate, qinghaosu-3-pyrrolidinylmethyl-4-hydroxybenzoate oxalate, and qinghaosu-3-morpholinylmethyl-4-hydroxybenzoate oxalate. […] The concentration of the original solution of these compounds were all 1 mg/ml.
(§1) a. Freshly cultured MT4 cells (5×10^5 /ml) were co-cultivated with the virus fluid (10^3 TCID50 /ml) in a CO2 incubator at 37° C. for 1-1.5 hours. RPMI 1640 complete medium (containing 10% Bovine serum and antibiotics, such as penicillin) was used to wash the unbound virus.
(§2) Complete medium was added to correct the concentration for use.
(§3) The experiment was carried out on the plates with 96 wells. 0.1 ml of the above-mentioned infected MT4 cell suspension was added into each well, and then 0.1 ml of various concentrations of the drugs were added. […] Each concentration of the drugs was added into two wells. Both the experiment group and the control group were incubated in a CO2 incubator at 37° C. The drug solution were changed 3 days later, and the following observations were carried out 6 days afterwards.
b. Observation on the growth situation of cells. Trypan blue dye was used to observe the quantity of live cells in each group.
(§4) c. Determination of the virus antigen expression. The immunoenzymatic method was used to examine the virus antigen expression. Cells from each group were separately smeared in two wells. They were fixed with cold acetone, HIV-positive serum was dropped into the wells. After incubated in a CO2 incubator at 37° C. for 30 minutes, they were washed with PBS for 3 times. Enzyme-labelled SPA was dropped into the wells. They were incubated in the same condition for 30 minutes, washed with PBS for 3 times, and then put in substrate solution to stain for 2-3 minutes, washed with distilled water, and observed under microscope. Normal cells were colorless, whereas virus-carrying cells appeared browrish red.
The mark used were as follows:
The experiment was repeated two to three times.
The concentration of the original fluid of these compounds were all 1 mg/ml. 0.1 ml was taken and added into 0.1 ml of virus-carrying cell suspension, thus the reaction concentrations were as follows: in the original fluid group, 0.1 mg/0.2 ml, i.e., 0.5 mg/ml; in 1×10^-1group, 0.05 mg/ml; in 1×10^-2 group, 0.005 mg/ml; in 1×10^-3 group, 0.0005 mg/ml, i.e., 0.5 μg/ml; and on the analogy of this.

[3] = system: U937 HIV-1; test: Inhibition effect on HIV-1 infected U937 cells (macrophage cell line), HIV antigen test (IE); assay type: cell-based; conditions: U937 HIV-1; 50 μg/ml
Method: as §1, §2, §3, §4
(§5) Furthermore, a part of the compounds according to the present invention were used to test their inhibition effect on U937 cell line (macrophage cell line)according to the methods in Experiment 1.

[4] = system: U937 HIV-1; test: Inhibition effect on HIV-1 infected U937 cells, activity of reverse transcriptase; assay type: cell-based; conditions: 50 μg/ml, control 24502
Excerpt: as §5

[5] = cited from earlier work
[6] = system: Plasmodium Berghei; test: Peters' four day inhibition test in mice, erythrocytic stage of Plasmodium Berghei; assay type: in vivo; conditions: once a day D0-D3, Hybrid Kunming strain mice, read-out: SD50 (the source's name)
Excerpt: Effect on Erythrocytic Stage of Plasmodium Berghei 1. "Four day inhibition test" in mice To determinate the SD50 with Peters' "four day inhibition test". Hybrid Kunming strain mice, body weight 18-22 g, were inculated with 1×10^7 parasites infected RBC intraperitoneally on D0. Dihydroqinghaosu-methylcarbamate, dihydroqinghaosu-butylcarbamate, dihydroqinghaosu-benzenecarbamate and dihydroqinghaosu-4-nitrobenzenecarbamate with different concentration were given once a day from D0 -D3. Blood smears from mouse's tail were made on D4, stained with Gimsa reagent and examined under microscope to count the infected and uninfected erthrocyte to get infected rate. Inhibitory rates of different dosages were calculated by following formula. The SD50 was calculated by the simplified probit analysis: [formula]

Molecule	effect on HIV-1 (MT4), virus antigen expression ([2]; 1 × 10^-1 (50 μg/ml))	effect on HIV-1 (MT4), virus antigen expression ([2]; 1 × 10^-2 (5 μg/ml))	effect on HIV-1 (MT4), virus antigen expression ([2]; 1 × 10^-3 (0.5 μg/ml))	also measured
CO[C@H]1O[C@@H]2O[C@@]3(C)CC[C@H]4[C@H](C)CC[C@@H]([C@H]1C)[C@@]24OO3 [Artemether, reference compound]	- (positive cells were not seen in the whole well)	- (positive cells were not seen in the whole well)	± (there were only 1-2 doubtful positive cells in whole well)	LD50 ([1]; im, I.M. (Intramuscular injection)): 263 mg/kg; effect on HIV-1 (MT4), virus antigen expression ([2]; 1 × 10^-4 (0.05 μg/ml)): + (there were 2-3 or more positive cells in the whole well)
C[C@H]1[C@H](OC(=O)CCC(=O)O)O[C@@H]2O[C@@]3(C)CC[C@H]4[C@H](C)CC[C@@H]1[C@@]24OO3 [Artesunate, reference compound]	- (positive cells were not seen in the whole well)	- (positive cells were not seen in the whole well)	- (positive cells were not seen in the whole well)	LD50 ([1]; I.V. (Intravenous injection)): 769 mg/kg; effect on HIV-1 (MT4), virus antigen expression ([2]; 1 × 10^-4 (0.05 μg/ml)): + (there were 2-3 or more positive cells in the whole well); Antigen test (IE) [3]: - (positive cells were not seen in the whole well); Activity of reverse transcription (CPM) [4]: 4846 CPM
Nc1ccn([C@H]2CC[C@@H](CO)O2)c(=O)n1 [DDC, di-deoxycytidine]	–	–	–	toxicity to peripheral nerves ([5]; appears 6 weeks after drug administration): toxicity to peripharal nerves
O=c1[nH]cnc2c1ncn2[C@H]1CC[C@@H](CO)O1 [DDI, di-deoxytrophicardyl]	–	–	–	toxicity to peripheral nerves ([5]; in vivo): toxicity to peripharal nerves
C[C@H]1[C@@H](O)O[C@@H]2O[C@@]3(C)CC[C@H]4[C@H](C)CC[C@@H]1[C@@]24OO3 [Dihydroqinghaosu, dihydroqinghaosu, reference compound]	- (positive cells were not seen in the whole well)	- (positive cells were not seen in the whole well)	± (there were only 1-2 doubtful positive cells in whole well)	LD50 ([1]; po, P.O. (per os)): 765 mg/kg; effect on HIV-1 (MT4), virus antigen expression ([2]; 1 × 10^-4 (0.05 μg/ml)): + (there were 2-3 or more positive cells in the whole well)
CC1CCC2C(C)C(OC(=O)Nc3ccc([N+](=O)[O-])cc3)OC3OC4(C)CCC1C32OO4 (stereo not shown) [Dihydroqinghaosu-4-nitrobenzenecarbamate, Dihydroqinghaosu-P-Nitrobenzenecarbamate]	–	–	–	ED50 [6]: 0.3 mg/kg
CCCCNC(=O)OC1OC2OC3(C)CCC4C(C)CCC(C1C)C24OO3 (stereo not shown) [Dihydroqinghaosu-butylcarbamate, dihydroqinghaosu-butylcarbamate]	–	–	–	ED50 [6]: 0.25 mg/kg
CC1CCC2C(C)C(OC(=O)c3cccc(Cl)c3)OC3OC4(C)CCC1C32OO4 (stereo not shown) [Dihydroqinghaosu-m-chlorobenzoate, dihydroqinghaosu-m-chlorobenzoate]	- (positive cells were not seen in the whole well)	- (positive cells were not seen in the whole well)	+ (there were 2-3 or more positive cells in the whole well)	–
C[C@@H]1CC[C@H]2[C@@H](C)C(=O)O[C@@H]3O[C@@]4(C)CC[C@@H]1[C@]32OO4 [Qinghaosu, Qinghaosu (Artemisinin)]	- (positive cells were not seen in the whole well)	- (positive cells were not seen in the whole well)	+ (there were 2-3 or more positive cells in the whole well)	effect on HIV-1 (MT4), virus antigen expression ([2]; 1 × 10^-4 (0.05 μg/ml)): + (there were 2-3 or more positive cells in the whole well)
CCN(CC)CCOC1OC2OC3(C)CCC4C(C)CCC(C1C)C24OO3 (stereo not shown) [dihydroqinghaosu-diethyl amino ethyl ether maleate]	± (there were only 1-2 doubtful positive cells in whole well)	+ (there were 2-3 or more positive cells in the whole well)	+ (there were 2-3 or more positive cells in the whole well)	–
CC1CCC2C(C)C(OCc3cc(CN4CCOCC4)c(O)c(CN4CCOCC4)c3)OC3OC4(C)CCC1C32OO4.O=C(O)/C=C\C(=O)O (stereo not shown) [qinghaosu-3,5-dimonpholinyl methyl-4-hydroxy benzyl ether maleate]	+ (there were 2-3 or more positive cells in the whole well)	+ (there were 2-3 or more positive cells in the whole well)	+ (there were 2-3 or more positive cells in the whole well)	–
Deoxyquinghaosu-morpholinyl propanol ether maleate	- (positive cells were not seen in the whole well)	+ (there were 2-3 or more positive cells in the whole well)	- (positive cells were not seen in the whole well)	–
qinghaosu-3-morpholinylmethyl-4-hydroxybenzoate oxalate	± (there were only 1-2 doubtful positive cells in whole well)	+ (there were 2-3 or more positive cells in the whole well)	+ (there were 2-3 or more positive cells in the whole well)	–
qinghaosu-3-pyrrolidinylmethyl-4-hydroxybenzoate oxalate	- (positive cells were not seen in the whole well)	+ (there were 2-3 or more positive cells in the whole well)	- (positive cells were not seen in the whole well)	–
qinghaosu-morpholinyl propanol ether maleate	+ (there were 2-3 or more positive cells in the whole well)	+ (there were 2-3 or more positive cells in the whole well)	+ (there were 2-3 or more positive cells in the whole well)	–
qinghaosu-morpholinyl propylether maleate	- (positive cells were not seen in the whole well)	+ (there were 2-3 or more positive cells in the whole well)	+ (there were 2-3 or more positive cells in the whole well)	–
